Where two headings read alike, the source gives them in different places.
Tests used:
[1] = target: T1, c-Met kinase domain recombinant protein (Homo sapiens, UniProt P08581); assay: biochemical; details: for inhibition at 0.1 µM: read-out: Average inhibition rate at 0.1 μM (%); for inhibition at 1 µM: read-out: Average inhibition rate at 1 μM (%)
T1 construct: 50 μL diluted solution of c-Met kinase domain recombinant protein in reaction buffer was added to initiate the reaction
How it was run: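 IC50 came from a four-parameter fit of inhibition rates measured by anti-phosphotyrosine (PY99/HRP) ELISA at 490 nm. The reaction ran 1 hour at 37° C with 5 μM ATP, c-Met kinase domain protein and Poly(Glu,Tyr)4:1-coated wells, in HEPES pH 7.4 buffer containing MgCl2, MnCl2, Na3VO4 and DTT.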

EBC-1 cell = assay: Test III: growth inhibition of non-small cell carcinoma EBC-1 cell (SRB); format: cell-based; details: Homo sapiens; for inhibition at 0.2 µM: read-out: Cell proliferation inhibition rate at 200 nM (%); for inhibition at 1 µM: read-out: Cell proliferation inhibition rate at 1 μM (%)
Protocol: Assays on the growth inhibition of the compounds against gastric tumor cell MKN45, non-small cell carcinoma EBC-1 cell (both are MET persistent activated cell lines due to MET gene amplification, and are Met dependent tumor cell lines, MKN45 cell was purchased from JCRB, Japan, EBC-1 cell was purchased from ATCC, USA) were detected using sulforhodamine B (SRB) staining. […] After incubation with compound for 72 hours, the incubation was terminated, adherent cells were retained and medium was discarded, 10% (w/v) trichloroacetic acid (100 μL pre well) was added, the cells were fixed at 4° C. for 1 hour, then rinsed with distilled water for 5 times, after dried at room temperature, SRB solution (4 mg/mL, dissolved in 1% glacial acetic acid) was added at 100 μL per well, incubated and stained at room temperature for 15 minutes, then rinsed with 1% glacial acetic acid for 5 times to remove any unbound SRB, dried at room temperature, then 10 mM Tris solution was added at 100 μL per well, the optical density (OD) value at 515 nm was measured using VERSMax microplate reader.
Experiments were conducted in duplicates. IC50 value was calculated by fitting the data for a four parameter fit using inhibition curve, the results are shown below in Table 2.

T1 sequence (P08581 1078-1345 limits assumed): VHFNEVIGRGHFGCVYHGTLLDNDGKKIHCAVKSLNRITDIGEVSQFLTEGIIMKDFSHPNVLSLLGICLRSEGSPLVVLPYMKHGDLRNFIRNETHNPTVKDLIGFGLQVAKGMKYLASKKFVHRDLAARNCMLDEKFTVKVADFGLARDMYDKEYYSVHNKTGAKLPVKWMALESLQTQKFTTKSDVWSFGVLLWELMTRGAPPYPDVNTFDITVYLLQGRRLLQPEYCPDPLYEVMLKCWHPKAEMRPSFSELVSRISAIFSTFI

Structure (SMILES) | IC50 [1] [nM] | inhibition at 0.1 µM [1] [%] | inhibition at 1 µM [1] [%] | inhibition at 0.2 µM (EBC-1 cell; EBC-1, 72 h) [%] | inhibition at 1 µM (EBC-1 cell; EBC-1, 72 h) [%] | inhibition at 0.2 µM (EBC-1 cell; EBC-1, 200 nM, 72 hours) [%] | inhibition at 1 µM (EBC-1 cell; EBC-1, 1 μM, 72 hours) [%]
Cn1cc(-c2ccc3ncc(S(=O)(=O)n4ncc5ncc(-c6cn[nH]c6)cc54)n3c2)cn1 [Example 106, 1-{(6-[(1-methyl)-4-pyrazolyl]-imidazo[1,2-a]pyridine)-3-sulfonyl}-6-(4-pyrazolyl)-1-H-pyrazolo[4,3-b]pyridine] | 1.9 ± 0.1 | 104 | 101 | 37 | 85.7 | – | –
Cn1cc(-c2cnc3[nH]cc(S(=O)(=O)n4ncc5cccnc54)c3c2)cn1 [Example 107, 1-{(5-[(1-methyl)-4-pyrazolyl])-1-H-pyrrolo [2,3-b]pyridine-3-sulfonyl}-1-H-pyrazolo[3,4-b]pyridine] | – | 29.1 | 88.2 | – | – | 18.9 | 18.1
CCOc1cccc(-c2cnc3cnn(S(=O)(=O)c4cnc5ccc([N+](=O)[O-])cn45)c3c2)c1 [Example 113, 1-[(6-nitro-imidazo[1,2-a]pyridine)-3-sulfonyl]-6-(3-ethoxyphenyl)-1-H-pyrazolo[4,3-b]pyridine] | – | 48.6 | 97.7 | – | – | 7.9 | 9
COc1ccc2ncc(S(=O)(=O)n3ncc4ncc(-c5cnn(C)c5)cc43)n2c1 [Example 121, 1-[(6-methoxy-imidazo[1,2-a]pyridine)-3-sulfonyl]-6-[(1-methyl)-4-pyrazolyl]-1-H-pyrazolo[4,3-b]pyridine] | 9 ± 1 | 99 | 101 | 91.6 | 92.5 | – | –
COc1ccc2ncc(S(=O)(=O)n3ncc4ncc(-c5ccc(N6CCOCC6)cc5)cc43)n2c1 [Example 124, 1-[(6-methoxy-imidazo[1,2-a]pyridine)-3-sulfonyl]-6-(4-morpholinylphenyl)-1-H-pyrazolo[4,3-b]pyridine] | 4.7 ± 1 | 94.4 | 99.7 | 43.1 | 92.7 | – | –
COc1ccc(-c2cnc3cnn(S(=O)(=O)c4cnc5ccc(O)cn45)c3c2)cc1 [Example 126, 1-[(6-hydroxy-imidazo[1,2-a]pyridine)-3-sulfonyl]-6-(4-methoxyphenyl)-1-H-pyrazolo[4,3-b]pyridine] | 7.3 ± 1.1 | 100 | 100 | 35.1 | 87 | – | –
CC(C)C(=O)Oc1ccc2ncc(S(=O)(=O)n3ncc4ncc(-c5cnn(C)c5)cc43)n2c1 [Example 128, 1-[(6-isobutyryloxy-imidazo[1,2-a]pyridine)-3-sulfonyl]-6-[(1-methyl)-4-pyrazolyl]-1-H-pyrazolo[4,3-b]pyridine] | 2 ± 0.2 | 99.4 | 99.3 | 80.6 | 87 | – | –
Cn1cc(-c2cnc3cnn(S(=O)(=O)c4cnc5ccc(OC(=O)c6ccco6)cn45)c3c2)cn1 [Example 129, 1-[(6-furan-2-acyloxy-imidazo[1,2-a]pyridine)-3-sulfonyl]-6-[(1-methyl)-4-pyrazolyl]-1-H-pyrazolo[4,3-b]pyridine] | 2.7 ± 0.5 | 99.6 | 101 | 79 | 86.6 | – | –
CCC(=O)Nc1cnc2cnn(S(=O)(=O)c3cnc4ccc(Br)cn34)c2c1 [Example 132, 1-[(6-bromo-imidazo[1,2-a]pyridine)-3-sulfonyl]-6-propionamido-1-H-pyrazolo[4,3-b]pyridine] | – | 92.1 | 100 | – | – | 48.2 | 85.4
Cn1cc(-c2ccc3ncc(S(=O)(=O)n4ncc5ncc(NC(=O)c6ccccc6)cc54)n3c2)cn1 [Example 133, 1-{(6-[(1-methyl)-4-pyrazolyl]-imidazo[1,2a]pyridine)-3-sulfonyl}-6-benzamido-1-H-pyrazolo[4,3-b]pyridine] | 2.6 ± 0.2 | 100 | 100 | 86.4 | 87.8 | – | –
Cn1cc(-c2ccc3ncc(S(=O)(=O)n4ncc5ncc(C6=CCN(C7CCCC7)CC6)cc54)n3c2)cn1 [Example 135, 1-{(6-[(1-methyl)-4-pyrazolyl]-imidazo[1,2-a]pyridine)-3-sulfonyl}-6-[(1-cyclopentyl)-4-(1,2,3,6-tetrahydropyridinyl)]-1-H-pyrazolo[4,3-b]pyridine] | 2.6 ± 0.2 | 87.4 | 88.2 | 89.4 | 91.4 | – | –
Cn1cc(-c2ccc3ncc(S(=O)(=O)n4ncc5ncc(-c6cnn(C7CCN(C8CCCC8)CC7)c6)cc54)n3c2)cn1 [Example 136, 1-{(6-[(1-methyl)-4-pyrazolyl]-imidazo[1,2-a]pyridine)-3-sulfonyl}-6-{{1-[(1-cyclopentyl)-4-piperidinyl]}-4-pyrazolyl}-1-H-pyrazolo[4,3-b]pyridine] | 1.2 ± 0.1 | 90.2 | 91.3 | 91.4 | 92.4 | – | –
CC(C)N1CC=C(c2cnc3cnn(S(=O)(=O)c4cnc5ccc(-c6cnn(C)c6)cn45)c3c2)CC1 [Example 137, 1-{(6-[(1-methyl)-4-pyrazolyl]-imidazo[1,2-a]pyridine)-3-sulfonyl}-6-[(1-isopropyl)-4-(1,2,3,6-tetrahydropyridinyl)]-1-H-pyrazolo[4,3-b]pyridine] | 1.3 ± 0.1 | 91.6 | 89.9 | 73 | 92.4 | – | –
CCN1CCC(n2cc(-c3cnc4cnn(S(=O)(=O)c5cnc6ccc(-c7cnn(C)c7)cn56)c4c3)cn2)CC1 [Example 138, 1-{(6-[(1-methyl)-4-pyrazolyl]-imidazo[1,2-a]pyridine)-3-sulfonyl}-6-{{1-[(1-ethyl)-4-piperidinyl]}-4-pyrazolyl}-1-H-pyrazolo[4,3-b]pyridine] | 0.6 ± 0.01 | 87.7 | 90.5 | 90.9 | 92.9 | – | –
Cn1cc(-c2ccc3ncc(S(=O)(=O)n4ncc5ncc(C6=CCNCC6)cc54)n3c2)cn1 [Example 139, 1-{(6-[(1-methyl)-4-pyrazolyl]-imidazo[1,2-a]pyridine)-3-sulfonyl}-6-[4-(1,2,3,6-tetrahydropyridinyl)]-1-H-pyrazolo[4,3-b]pyridine] | 1 ± 0.1 | 90.3 | 88.9 | 90.7 | 91.6 | – | –
Cn1cc(-c2ccc3ncc(S(=O)(=O)n4ncc5ncc(-c6cnn(C7CCNCC7)c6)cc54)n3c2)cn1 [Example 140, 1-{(6-[(1-methyl)-4-pyrazolyl]-imidazo[1,2-a]pyridine)-3-sulfonyl}-6-{[1-(4-piperidinyl)]-4-pyrazolyl}-1-H-pyrazolo[4,3-b]pyridine] | 0.5 ± 0.03 | 92.4 | 89.5 | 91.4 | 92 | – | –
Cn1cc(-c2ccc3ncc(S(=O)(=O)n4ncc5ncc(-c6cnn(C7CCN(C(=O)OC(C)(C)C)CC7)c6)cc54)n3c2)cn1 [Example 141, 1-{(6-[(1-methyl)-4-pyrazolyl]-imidazo[1,2-a]pyridine)-3-sulfonyl}-6-{{1-[(1-t-butoxycarbonyl)-4-piperidinyl]}-4-pyrazolyl}-1-H-pyrazolo[4,3-b]pyridine] | 0.3 ± 0.1 | 86.3 | 88.5 | 92.6 | 92.7 | – | –
Cn1cc(-c2ccc3ncc(S(=O)(=O)n4ncc5ncc(-c6ccc(CN7CCOCC7)cc6)cc54)n3c2)cn1 [Example 143, 1-{(6-[(1-methyl)-4-pyrazolyl]-imidazo[1,2-a]pyridine)-3-sulfonyl}-6-(4-morpholinomethylphenyl)-1-H-pyrazolo[4,3-b]pyridine] | 0.4 ± 0.1 | 90 | 92.1 | 92.3 | 92.5 | – | –
Cn1cc(-c2ccc3ncc(S(=O)(=O)n4ncc5ncc(-c6ccccc6)cc54)n3c2)cn1 [Example 144, 1-{(6-[(1-methyl)-4-pyrazolyl]-imidazo[1,2-a]pyridine)-3-sulfonyl}-6-phenyl-1-H-pyrazolo[4,3-b]pyridine] | 0.3 ± 0.01 | 92.1 | 93.1 | 91.1 | 91.4 | – | –

Source: patent publication US9988381B2, “Five-member-heterocycle fused pyridine compounds, method of producing the same, and use thereof” (SHANGHAI INSTITUTE OF MATERIA MEDICA, CHINESE ACADEMY OF …, priority 2013, dated 2018)
